Reference: patent publication US20200085050A1, “Acyclic Picolinamides as a Seed Treatment” (priority 2017, published 2020)
Read-outs that look alike come from different tables or passages of the source.

Tests used:
[1] = tested on: Blumeria graminis f. sp. hordei; assay: Seed treatment, barley powdery mildew (ERYSGH) foliar disease control; assay type: in vivo
[2] = tested on: Blumeria graminis f. sp. tritici; assay: Seed treatment, wheat powdery mildew (ERYSGT) foliar disease control; assay type: in vivo
Zymoseptoria tritici = assay: Seed treatment, wheat leaf blotch (SEPTTR) foliar disease control; assay type: in vivo
Puccinia triticina = assay: Seed treatment, wheat brown rust (PUCCRT) foliar disease control; assay type: in vivo
Cochliobolus sativus = assay: Seed treatment, spot blotch of barley (COCHSA) foliar disease control; assay type: in vivo
Erysiphe cichoracearum = assay: Seed treatment, cucumber powdery mildew (ERYSCI) foliar disease control; assay type: in vivo
[3] = tested on: Colletotrichum lagenarium; assay: Seed treatment, cucumber anthracnose (COLLLA) foliar disease control; assay type: in vivo
Rhynchosporium secalis = assay: Seed treatment, barley scald (RHYNSE) foliar disease control; assay type: in vivo
Pyricularia oryzae = assay type: in vivo; details: for PYRIOR rating of foliar disease control: rice
Parastagonospora nodorum = assay: Seed treatment, wheat glume blotch (LEPTNO) foliar disease control; assay type: in vivo
Phakopsora pachyrhizi = assay: Seed treatment, soybean rust (PHAKPA) foliar disease control; assay type: in vivo; details: at any rate, data not shown
Rhizoctonia solani = assay: Seed treatment, rice sheath blight (RHIZSO) foliar disease control; assay type: in vivo
[4] = tested on: Pseudoperonospora cubensis; assay: Seed treatment, cucumber downy mildew (PSEUCU) foliar disease control; assay type: in vivo
[5] = in vivo
Excerpt: The treated seeds were planted in pots containing soil-less Metro mix within 2 weeks after treatment, and resultant seedling plants were inoculated with respective pathogens as described below. Four pots of the seedlings were inoculated for each treatment rate.

[6] = seed treatment 3.7 g ai/100 kg seeds
[7] = seed treatment 11 g ai/100 kg seeds
[8] = seed treatment 33.3 g ai/100 kg seeds
[9] = seed treatment 100 g ai/100 kg seeds
[10] = seed treatment 300 g ai/100 kg seeds
[11] = seed treatment, summary of Table 3
[12] = seed treatment, summary of Table 2
[13] = seed treatment, summary of Table 4
[14] = seed treatment, summary of Table 5

COc1ccnc(C(=O)N[C@@H](C)C(=O)O[C@@H](C)C(c2ccc(F)cc2)c2ccc(F)cc2)c1OC(C)=O [I, (S)-1,1-bis(4-fluorophenyl)propan-2-yl (3-acetoxy-4-methoxypicolinoyl)-L-alaninate]
ERYSGH rating of foliar disease control [1, 6]: D (0-25) | ERYSGH rating of foliar disease control [1, 7]: A (76-100) | ERYSGH rating of foliar disease control [1, 8]: A (76-100) | ERYSGH rating of foliar disease control [1, 9]: A (76-100) | ERYSGH rating of foliar disease control [1, 10]: A (76-100) | activity on powdery mildew (ERYSGH), in words [1, 11]: excellent activity | ERYSGT rating of foliar disease control [2, 6]: D (0-25) | ERYSGT rating of foliar disease control [2, 7]: D (0-25) | ERYSGT rating of foliar disease control [2, 8]: B (51-75) | ERYSGT rating of foliar disease control [2, 9]: A (76-100) | ERYSGT rating of foliar disease control [2, 10]: A (76-100) | activity against powdery mildew (ERYSGT), in words [2, 12]: moderate activity | SEPTTR rating of foliar disease control (Zymoseptoria tritici; [6]): A (76-100) | SEPTTR rating of foliar disease control (Zymoseptoria tritici; [7]): A (76-100) | SEPTTR rating of foliar disease control (Zymoseptoria tritici; [8]): A (76-100) | SEPTTR rating of foliar disease control (Zymoseptoria tritici; [9]): A (76-100) | SEPTTR rating of foliar disease control (Zymoseptoria tritici; [10]): A (76-100) | protection against leaf blotch (SEPTTR), in words (Zymoseptoria tritici; [12]): excellent protection | PUCCRT rating of foliar disease control (Puccinia triticina; [6]): D (0-25) | PUCCRT rating of foliar disease control (Puccinia triticina; [7]): D (0-25) | PUCCRT rating of foliar disease control (Puccinia triticina; [8]): D (0-25) | PUCCRT rating of foliar disease control (Puccinia triticina; [9]): C (26-50) | PUCCRT rating of foliar disease control (Puccinia triticina; [10]): A (76-100) | activity against brown rust (PUCCRT), in words (Puccinia triticina; [12]): moderate activity | COCHSA rating of foliar disease control (Cochliobolus sativus; [6]): D (0-25) | COCHSA rating of foliar disease control (Cochliobolus sativus; [7]): D (0-25) | COCHSA rating of foliar disease control (Cochliobolus sativus; [8]): D (0-25) | COCHSA rating of foliar disease control (Cochliobolus sativus; [9]): D (0-25) | COCHSA rating of foliar disease control (Cochliobolus sativus; [10]): D (0-25) | activity on spot blotch (COCHSA), in words (Cochliobolus sativus; [11]): little activity | ERYSCI rating of foliar disease control (Erysiphe cichoracearum; [6]): D (0-25) | ERYSCI rating of foliar disease control (Erysiphe cichoracearum; [7]): D (0-25) | ERYSCI rating of foliar disease control (Erysiphe cichoracearum; [8]): D (0-25) | ERYSCI rating of foliar disease control (Erysiphe cichoracearum; [9]): B (51-75) | ERYSCI rating of foliar disease control (Erysiphe cichoracearum; [10]): A (76-100) | activity on powdery mildew (ERYSCI), in words (Erysiphe cichoracearum; [13]): moderate activity | COLLLA rating of foliar disease control [3, 6]: D (0-25) | COLLLA rating of foliar disease control [3, 7]: B (51-75) | COLLLA rating of foliar disease control [3, 8]: B (51-75) | COLLLA rating of foliar disease control [3, 9]: A (76-100) | COLLLA rating of foliar disease control [3, 10]: A (76-100) | activity on anthracnose (COLLLA), in words [3, 13]: strong activity | RHYNSE rating of foliar disease control (Rhynchosporium secalis; [6]): D (0-25) | RHYNSE rating of foliar disease control (Rhynchosporium secalis; [7]): D (0-25) | RHYNSE rating of foliar disease control (Rhynchosporium secalis; [8]): C (26-50) | RHYNSE rating of foliar disease control (Rhynchosporium secalis; [9]): B (51-75) | RHYNSE rating of foliar disease control (Rhynchosporium secalis; [10]): A (76-100) | activity on barley scald (RHYNSE), in words (Rhynchosporium secalis; [11]): moderate activity | PYRIOR rating of foliar disease control (Pyricularia oryzae; [6]): B (51-75) | PYRIOR rating of foliar disease control (Pyricularia oryzae; [7]): B (51-75) | PYRIOR rating of foliar disease control (Pyricularia oryzae; [8]): A (76-100) | PYRIOR rating of foliar disease control (Pyricularia oryzae; [9]): A (76-100) | PYRIOR rating of foliar disease control (Pyricularia oryzae; [10]): A (76-100) | activity on rice blast (PYRIOR), in words (Pyricularia oryzae; [14]): strong activity | LEPTNO rating of foliar disease control (Parastagonospora nodorum; [6]): A (76-100) | LEPTNO rating of foliar disease control (Parastagonospora nodorum; [7]): A (76-100) | LEPTNO rating of foliar disease control (Parastagonospora nodorum; [8]): A (76-100) | LEPTNO rating of foliar disease control (Parastagonospora nodorum; [9]): A (76-100) | LEPTNO rating of foliar disease control (Parastagonospora nodorum; [10]): A (76-100) | protection against glume blotch (LEPTNO), in words (Parastagonospora nodorum; [12]): excellent protection | activity on Asian soybean rust (PHAKPA), in words (Phakopsora pachyrhizi): no activity | RHIZSO rating of foliar disease control (Rhizoctonia solani; [6]): D (0-25) | RHIZSO rating of foliar disease control (Rhizoctonia solani; [7]): D (0-25) | RHIZSO rating of foliar disease control (Rhizoctonia solani; [8]): D (0-25) | RHIZSO rating of foliar disease control (Rhizoctonia solani; [9]): D (0-25) | RHIZSO rating of foliar disease control (Rhizoctonia solani; [10]): D (0-25) | activity on rice sheath blight (RHIZSO), in words (Rhizoctonia solani; [14]): little activity | PSEUCU rating of foliar disease control [4, 6]: D (0-25) | PSEUCU rating of foliar disease control [4, 7]: D (0-25) | PSEUCU rating of foliar disease control [4, 8]: D (0-25) | PSEUCU rating of foliar disease control [4, 9]: D (0-25) | PSEUCU rating of foliar disease control [4, 10]: D (0-25) | activity on downy mildew (PSEUCU), in words [4, 13]: little activity | stunting or phytotoxicity [5]: no evidence of stunting or phytotoxicity
